This test deals with T1, human EP2 receptor (Homo sapiens, UniProt P43116).
T1 construct: host or cells: HEK293
Nature of the test: Measurement of EP2 receptor binding action ([3H]prostaglandin E2 displacement, membrane fraction of HEK293 cells). The note with it: tested as active form (R1 = hydroxy group) of the example compound; [3H]prostaglandin E2 10 nM, 60 minutes at 30° C. How it is done:
Measurement of EP2 receptor binding action was carried out in compliance with the method of Abramovitz et al. (Biochimica et Biophysica Acta, 1483, 285 (2000)). A test compound (a compound wherein R^1 in the compound represented by the formula (I) of the present invention is a hydroxy group) dissolved in dimethylsulfoxide and [^3H]prostaglandin E2 (NET-428, available from PerkinElmer) (final concentration: 10 nM) were added to a buffer solution (10 mM MES-KOH (pH 6.0), 10 mM MgCl2, 1 mM EDTA) in which was suspended 10 μg of a membrane fraction of HEK293 cells expressing human EP2 receptor (ES-562-M, available from Euroscreen) followed by incubating for 60 minutes at 30° C. The membrane fraction was recovered on glass fiber filter paper (GF/B, available from Whatmann) using a cell harvester (M30R, Brandel), and after washing with a buffer solution (10 mM MES-KOH (pH 6.0), 10 mM MgCl2), radioactivity was measured with a liquid scintillation analyzer (2000CA, Packard).
Ki=IC50/(1+([^3H]prostaglandin E2 concentration/Kd))
The dissociation constant (Kd value) was calculated by Scatchard analysis.

Here are results for two substances from US20120226036A1, “S[…] COMPOUND” (UBE INDUSTRIES, LTD., priority 2009, published 2012).

T1 sequence (P43116 whole entry): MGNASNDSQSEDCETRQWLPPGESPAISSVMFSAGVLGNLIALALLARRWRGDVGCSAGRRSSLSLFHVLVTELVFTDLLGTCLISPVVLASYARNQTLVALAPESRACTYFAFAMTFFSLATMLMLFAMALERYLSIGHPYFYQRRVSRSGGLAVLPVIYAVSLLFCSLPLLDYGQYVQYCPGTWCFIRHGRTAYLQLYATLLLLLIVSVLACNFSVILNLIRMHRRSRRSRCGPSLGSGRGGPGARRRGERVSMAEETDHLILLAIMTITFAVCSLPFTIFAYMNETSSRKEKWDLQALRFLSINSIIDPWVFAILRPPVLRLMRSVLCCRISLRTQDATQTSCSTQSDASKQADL

As a reminder, the Ki is a dissociation constant, usually derived from enzyme kinetics or from competition with a known ligand. Read a high Ki as lower affinity. As for “(2,2,2-Trifluoroethyl)(6-{[4-(pyrazol-1-yl)benzyl](pyridin-3-ylsulfonyl)aminomethyl}-pyridin-2-ylamino)acetate [Example 11]”, the Ki was found to be 13 nM.

Regarding “(5-Phenylpentyl)(6-{(pyridin-2-ylsulfonyl)[4-(thiazol-2-yl)benzyl]aminomethyl}-pyridin-2-ylamino)acetate [Example 1]”, the Ki stood at 1.9 nM.
